We go through 3 substances from paper PMC7385626 (Scientific Reports, 2020).

Where “and” joins values, the source holds several entries; their conditions need not be identical. Equal values may be shown once.

The target of one assay is BSA (Bos taurus, UniProt P02769). Nature of the assay: UV–Visible absorption titration, BSA binding constant. Further details: species or system Bovine. The text has this: UV–Visible absorption spectroscopy technique was also used to study interactions between BSA and 1–4. […] The some results of [BSA]/(εa − εf) = [BSA]/(εb − εf) + 1/[Kb(εb − εf)] in Fig. 9, used and also obtained. The binding constants for the 1–4 were found as 2.4 ± 0.22 × 10^4 M^−1, 4.3 ± 0.29 × 10^4 M^−1, 3.4 ± 0.23 × 10^4 M^−1 and 4.8 ± 0.29 × 10^4 M^−1, respectively. In Fig. 9, the increase in BSA concentrations leads to a change in the absorption of the complexes resulting in hypochromism for 1 and 3 and hyperchromism for 2 and 4.
To obtain the interaction act of the molecules with calf thymus DNA and also to determine the binding constants (Kb) UV–Visible absorption spectroscopy method was utilized. Indeed, 2.5 mg calf thymus DNA in this part was dissolved in Tris–HCl buffer and stabile pending seven days in the refrigerator. The concentration level of calf thymus DNA was calculated spectrophotometrically assay at 260 nm. This method was done according to previous studies.

The next assay deals with C6, HeLa, and HT29 cells. Nature of the assay: DNA laddering (internucleosomal DNA fragmentation). Type of assay: cell-based. Here is the method:
Here, appearances of apoptotic morphology and DNA fragmentation may be a result of the activation of the extrinsic apoptotic pathways, including Ca^2+ dependent endonucleases. Apoptosis assay is determined by controlling cell death which included cleavage of DNA molecule into regular fragments. In this part, we observed that our molecules could act through containing apoptosis on some cells. More studies were conducted to obtain the antiproliferative and apoptotic potentials of Ag molecules which are consistent with this work[70],[75],[75],[79],[80].
By growing C6, HeLa, and HT29 cells were incubated with the molecules at 37 °C for overnight, DNA molecule was isolated in this part, and DNA fragmentation was visualized by agarose gel electrophoresis. […] A-HT29: 1, DNA standard; 2, HT29 Control; 3, HT29 + 2; 4, HT29 + 3; 5, HT29 + 4. B-C6: 1, DNA standard; 2, C6 + 2; 3, C6 + 3; 4, C6 + 4; 5, C6 Control. C-HeLa: 1, DNA standard; 2, HeLa + 2; 3, HeLa + 3; 4, HeLa + 4; 5, HeLa Control.
. Treated cell was harvested using a plastic scraper, and these fixed with 70 % ethanol, and also incubated for 48 hours. The ethanol amount was removed by centrifugation and air drying. The cell pellet was resuspended in 55 μL phosphate-citrate buffer (consisting of 192 parts of 0.2 M Na2HPO4 and 8 parts of 0.1 M citric acid, pH 7.8), and incubated at 37°C for 30 min in a shaker incubator. A 45 μL of supernatant was transferred to a microsantrifuge tube, mixed with 5 μL 0.25% Tween20 solution and 5 μL RNase A enzyme solution and also incubated for 30 min in a shaker incubator. […]

The next assay relates to HeLa. Kind of assay: BrdU Cell Proliferation Assay (BCPA). It is filed as cell-based. The text has this:
(§1) The antiproliferative activities of Ag(I) molecules and the starting molecules of the parent molecules, N-bishydeten and [Ag(CN)2]^− compound, on cells, were monitored utilizing by the BrdU Cell Proliferation Assay (BCPA) (Fig. 6).
(§2) The antiproliferative activity of the 2, 3, 4, [Ag(CN)2]^− and 5FU against various cell lines (HeLa ATCC CCL-2, C6 cells ATCC CCL-107, HT29 ATCC HTB-38, and Vero ATCC CCL-81) were preserved and maintained in Dulbecco’s modified eagle’s medium, supplemented with %2 antibiotic (Streptomycin-Penicillin) solution and 10% fetal bovine serum.
(§3) The cell suspension including 5×10^3 cells in 100 µL was supplied into the well cell plates (96-well cell). The therapies of these cells with 2, 3, 4 and [Ag(CN)2]^− in DMSO (max 0.1% DMSO) and 5-Florouracil (5 FU) molecule in DMSO (max 0.1% DMSO) separately at concentration 0.25, 0.50, 1.00, 1.50, 2.00, 2.50, 3.75, and 5.00 µg/mL were carried out. The last volume was adapted to 200 µL by mixture and DMEM and also incubated for 24 h at 37°C with 5% CO2. The antiproliferative activities of the 2, 3, 4 and [Ag(CN)2]^− were determined with using BrdU Cell proliferation ELISA Kit conforming to manufacturer’s assay.
(§4) IC50 values the concentration of a factor which required for other method of in vitro.

The next assay relates to Vero. Nature of the assay: BrdU Cell Proliferation Assay (BCPA). Type of assay: cell-based.
Excerpt: as §1, §2, §3, §4

The next assay deals with C6. Kind of assay: BrdU Cell Proliferation Assay (BCPA). Type of assay: cell-based.
Excerpt: as §1, §2, §3, §4

In a further assay the test system is E. coli 111. Kind of assay: Disc diffusion assay. Type of assay: cell-based, Escherichia coli. The method, then: (§5) Therefore, the pathogen bacterial flora and the opportunistic agents may be taken into consideration both in the management of cancer patients and in individual susceptibility to cancer. Indeed, dual acting factors with antimicrobial and antiproliferative potentials can result in improved therapeutic efficacy for cancer cell patients or reduced cancer predisposition. […]. In this study, 10 microbial cultures of this part, belonging to ten types of bacterial were used. The culture was grown in Mueller–Hinton Broth (Merck) for all the bacterial strains at 36 °C. Antimicrobial test was carried out by using disc-diffusion assay utilizing 100 µL of suspension with 10^8 CFU/mL of bacteria and 10^6 CFU/mL of yeast spread on Nutrient Agar and Potato Dextrose Agar, respectively. Also, the blank disc (Oxoid = 6 mm in diameter) was impregnated with 20 µL of each substance (105 µg/disc) and placed on the inoculated agar. Negative controls ([…]) were prepared using the same solvent (water) employed to dissolve each substance. […]. The inoculated plate was incubated at 36 °C for clinical bacterial strains. Antimicrobial activities were evaluated by obtaining the zone of inhibitory effect against the test organisms.

A further assay has as its system HT29. Nature of the assay: BrdU Cell Proliferation Assay (BCPA). Type of assay: cell-based, human.
Excerpt: as §1, §2, §3, §4

The test system of assay [1] is HeLa, HT29, C6 and Vero cells. Kind of assay: BrdU Cell Proliferation Assay, range over the cell lines. Type of assay: cell-based.
Excerpt: as §1, §2, §3, §4

In the next assay the test system is B. cereus DSM 4312. Kind of assay: Disc diffusion assay. It is filed as cell-based, Bacillus Cereus. The method, then:
as §5
A general note: A growth-free zone around the sample is the usual read-out of agar diffusion tests.

A further assay deals with P. aeruginosa ATCC9027. Nature of the assay: Serial microdilution assay (MIC). It is filed as cell-based, Pseudomonas Aureginosa. Here is the method:
[…]. […] Four types of gram-positive bacterial strains (St. pyogenez, B. subtilis, B. cereus, S. aureus) and five types of the gram-negative (S. enteridis, E. aerogenes, P. aeruginosa, E. coli, and S. gallinarum) were sensitive to 4 and 1. […]. The minimal inhibitory concentration value was studied for the microorganism cells, which evaluated to sensitive the substances and they tested in the disc-diffusion method. Inoculate of microorganism was prepared utilizing 12 h suspensions and broth cultures were adjusted to 0.5 McFarland turbidity standard. Each substance was dissolved in 10% dimethyl sulfoxide which diluted to the highest concentration (1000 µg/mL) for testing. […]. Also, prepared suspensions for standard microorganisms were added to each dilution in a 1:1 ratio. Growth act of microorganism cells was determined visually after incubation at 36 °C. The minimum concentration was no visible growth which was taken as the MIC.
For orientation: Dilution methods test growth across graded concentrations, often in twofold steps.

Take [Zn(N-bishydeten)Ag3(CN)5] [Complex 3]: the “binding constant with BSA” value on BSA was 3.4 ± 0.23 × 10^4 M^−1 and 3.4 x 10^4. Moreover, in the assay on C6, HeLa, and HT29 cells, the “DNA fragmentation (DNA laddering)” value is on record as “induced the organization of DNA fragmentation”. Besides, the IC50 in the assay with HeLa was 3.19 ± 0.37 µM; in the assay on Vero, 3060 ± 350 nM; in the assay on C6, 3340 ± 340 nM; with HT29, 2370 ± 320 nM; in assay [1], 2370 to 3340 nM. Besides, in the assay with E. coli 111, the “inhibition zones, E. coli 111” value worked out at 30 ± 0.58 mm. The “inhibition zones, B. cereus DSM 4312” value in the assay with B. cereus DSM 4312 is on record as 34 ± 0.0 mm.
Consider [Cu(N-bishydeten)Ag3(CN)5] [Complex 2], for which, at BSA, the “binding constant with BSA” value is 4.3 ± 0.29 × 10^4 M^−1 and 4.3 x 10^4. Further, the “DNA fragmentation (DNA laddering)” value with C6, HeLa, and HT29 cells was “induced the organization of DNA fragmentation”. Also, the IC50 in the assay with HeLa was 3.64 ± 0.42 µM; in the assay with Vero, 2810 ± 320 nM; in the assay with C6, 950 ± 90 nM; in the assay on HT29, 870 ± 90 nM; in assay [1] it was 870 to 3640 nM. For the same substance, the “inhibition zones, E. coli 111” value in the assay with E. coli 111 turned out to be 32 ± 0.0 mm. Besides, the “inhibition zones, B. cereus DSM 4312” value in the assay with B. cereus DSM 4312 was found to be 30 ± 0.58 mm.
As for “[Cd(N-bishydeten)]4[Ag(CN)2]8[Ag(CN)]2 [Complex 4]”, the “binding constant with BSA” value on BSA is 4.8 ± 0.29 × 10^4 M^−1 and 4.8 x 10^4. Further, in the assay with C6, HeLa, and HT29 cells, the “DNA fragmentation (DNA laddering)” value is listed as “induced the organization of DNA fragmentation”. Besides, the IC50 is 0.61 ± 0.09 µM in the assay with HeLa; 630 ± 90 nM with Vero; 600 ± 90 nM in the assay with C6; 480 ± 80 nM in the assay with HT29; 480 to 630 nM in assay [1]. Further, in the assay on E. coli 111, the “inhibition zones, E. coli 111” value was 29 ± 0.58 mm. The “Minimum-inhibitory concentrations (MIC), P. aeruginosa ATCC9027” value with P. aeruginosa ATCC9027 is on record as 62.50 ± 0.0 µg/mL. For the same substance, in the assay with B. cereus DSM 4312, the “inhibition zones, B. cereus DSM 4312” value was determined as 36 ± 1.0 mm.

One may read the IC50 as the concentration that inhibits the measured activity by half.
